Measured values published in US4663329A, “Thienopyridinone derivatives and anti-bacterial compositions containing them” (Sanofi, priority 1984, dated 1987).
In brackets after ≈: the same amount, converted by molar mass. Where two headings read alike, the source gives them in different places.

Key:
Assay type in all cases: cell-based
[1] = test system: Staphylococcus aureus 53154 IP; assay: In vitro antibacterial activity, MIC, Staphylococcus aureus 53154 IP
Description: (§1) Tests carried out in vitro in accordance with the experimental procedure described hereunder have provided evidence of the antibacterial activity in question.
(§2) For this purpose, the M.I.C. were determined i.e. the minimal inhibiting concentrations of the compound under study acting on the growth of the bacteria at 37° C.
(§3) The serial dilutions method was used utilizing a MUELLER HINTON gelose medium at pH=7.4 and a bacterial inoculum of 10^4 units forming colonies. This inoculum was applied to the gelose by means of a multiple sowing device.
(§4) A scale of concentrations ranging from 100 to 0.05 μg/ml of compound to be studied was used starting from mother solutions titrating 1000 μg/ml, all the subsequent dilutions being effected in distilled water.

[2] = test system: Streptococcus faecalis 5855 IP; assay: In vitro antibacterial activity, MIC, Streptococcus faecalis 5855 IP; conditions: 37° C.
Description: as §1, §2, §3, §4

[3] = test system: Bacillus subtilis ATCC 6633; assay: In vitro antibacterial activity, MIC, Bacillus subtilis ATCC 6633
Description: as §1, §2, §3, §4

[4] = test system: Escherichia coli 54127 IP; assay: In vitro antibacterial activity, MIC, Escherichia coli 54127 IP; conditions: Escherichia coli 54127 IP, 37° C., pH=7.4, inoculum 10^4
Description: as §1, §2, §3, §4

[5] = test system: Escherichia coli SOL RL 90; assay: In vitro antibacterial activity, MIC, Escherichia coli SOL RL 90
Description: as §1, §2, §3, §4

[6] = test system: Citrobacter freundii GN 346; assay: In vitro antibacterial activity, MIC, Citrobacter freundii GN 346
Description: as §1, §2, §3, §4

[7] = test system: Proteus vulgaris RL 99 bis; assay: In vitro antibacterial activity, MIC, Proteus vulgaris RL 99 bis; conditions: Proteus vulgaris RL 99 bis, 37° C., pH=7.4, inoculum 10^4
Description: as §1, §2, §3, §4

[8] = test system: Proteus mirabilis ATCC 21100; assay: In vitro antibacterial activity, MIC, Proteus mirabilis ATCC 21100
Description: as §1, §2, §3, §4

[9] = test system: Proteus morganii 1510; assay: In vitro antibacterial activity, MIC, Proteus morganii 1510
Description: as §1, §2, §3, §4

[10] = test system: Providencia stuartii 5158; assay: In vitro antibacterial activity, MIC, Providencia stuartii 5158
Description: as §1, §2, §3, §4

[11] = test system: Serratia liquefaciens 376; assay: In vitro antibacterial activity, MIC, Serratia liquefaciens 376; conditions: 37° C.
Description: as §1, §2, §3, §4

[12] = test system: Klebsiella pneumoniae ATCC 10031; assay: In vitro antibacterial activity, MIC, Klebsiella pneumoniae ATCC 10031; conditions: Klebsiella pneumoniae ATCC 10031, 37° C., pH=7.4, inoculum 10^4
Description: as §1, §2, §3, §4

[13] = test system: Klebsiella pneumoniae R 30; assay: In vitro antibacterial activity, MIC, Klebsiella pneumoniae R 30
Description: as §1, §2, §3, §4

[14] = test system: Enterobacter cloacae P 99; assay: In vitro antibacterial activity, MIC, Enterobacter cloacae P 99
Description: as §1, §2, §3, §4

[15] = test system: Enterobacter hafniae RO 46; assay: In vitro antibacterial activity, MIC, Enterobacter hafniae RO 46
Description: as §1, §2, §3, §4

[16] = test system: Salmonella typhimurium A 222 IP; assay: In vitro antibacterial activity, MIC, Salmonella typhimurium A 222 IP
Description: as §1, §2, §3, §4

[17] = test system: Salmonella typhi ATCC 6539; assay: In vitro antibacterial activity, MIC, Salmonella typhi ATCC 6539
Description: as §1, §2, §3, §4

[18] = test system: Bordetella bronchiseptica ATCC 4617; assay: In vitro antibacterial activity, MIC, Bordetella bronchiseptica ATCC 4617
Description: as §1, §2, §3, §4

[19] = test system: Pseudomonas aeruginosa 8203; assay: In vitro antibacterial activity, MIC, Pseudomonas aeruginosa 8203; conditions: 37° C.
Description: as §1, §2, §3, §4

[20] = test system: Acinetobacter calcoaceticus C 1733; assay: In vitro antibacterial activity, MIC, Acinetobacter calcoaceticus C 1733
Description: as §1, §2, §3, §4

[21] = test system: Shigella sonnei R 018; assay: In vitro antibacterial activity, MIC, Shigella sonnei R 018; conditions: R018, 37° C., pH=7.4, inoculum 10^4
Description: as §1, §2, §3, §4

[22] = Staphylococcus aureus 53154 IP, 37° C., pH=7.4, inoculum 10^4, read-out: MIC
[23] = Enterococcus faecalis, pH=7.4, inoculum 10^4, read-out: MIC
[24] = SOLRL90, Escherichia coli SOL RL 90, 37° C., pH=7.4, inoculum 10^4, read-out: MIC
[25] = ATCC21100, Proteus mirabilis ATCC 21100, 37° C., pH=7.4, inoculum 10^4, read-out: MIC
[26] = Morganella morganii, Proteus morganii 1510, 37° C., pH=7.4, inoculum 10^4, read-out: MIC
[27] = Providencia stuartii 5158, 37° C., pH=7.4, inoculum 10^4, read-out: MIC
[28] = pH=7.4, inoculum 10^4, read-out: MIC
[29] = R30, Klebsiella pneumoniae R 30, 37° C., pH=7.4, inoculum 10^4, read-out: MIC
[30] = Hafnia alvei, RO46, Enterobacter hafniae RO 46, 37° C., pH=7.4, inoculum 10^4, read-out: MIC
[31] = Salmonella enterica, Salmonella typhimurium A 222 IP, 37° C., pH=7.4, inoculum 10^4, read-out: MIC
[32] = ATCC4617, 37° C., pH=7.4, inoculum 10^4, read-out: MIC
[33] = C1733, 37° C., pH=7.4, inoculum 10^4, read-out: MIC
[34] = Salmonella enterica, TYPHIMURIUM

Row | Compound | MIC [1, 22] [µg/mL] | MIC [2, 23] [µg/mL] | MIC ([4]; read-out: MIC) [µg/mL] | MIC [5, 24] [µg/mL] | MIC ([7]; RL99BIS, read-out: MIC) [µg/mL] | MIC [8, 25] [µg/mL] | MIC [9, 26] [µg/mL] | MIC [10, 27] [µg/mL] | MIC [11, 28] [µg/mL] | MIC ([12]; ATCC10031, read-out: MIC) [µg/mL] | MIC [13, 29] [µg/mL] | MIC ([14]; Enterobacter cloacae, P99) [µg/mL] | MIC [15, 30] [µg/mL] | MIC [21] [µg/mL] | MIC [16, 31] [µg/mL] | MIC ([17]; Salmonella enterica) [µg/mL] | MIC [18, 32] [µg/mL] | MIC [19, 28] [µg/mL] | MIC [20, 33] [µg/mL] | MIC ([6]; Citrobacter freundii, GN346) [µg/mL] | further results
1 | CCn1cc(C(=O)O)c(=O)c2cc(C=NOC)sc21 (single isomer, unassigned) [Compound H, 4,7-Dihydro-7-ethyl-2-methoxyiminomethyl-4-oxo-thieno[2,3-b]pyridine-5-carboxylic acid, anti-isomer] | – | – | – | – | – | – | – | – | – | – | – | – | – | – | – | – | – | – | – | – | MIC ([1]; Staphylococcus aureus 53154 IP, 37° C., pH=7.4, inoculum 10^4): > 50 µg/mL; MIC ([2]; pH=7.4, inoculum 10^4): > 100 µg/mL; MIC ([3]; Bacillus subtilis ATCC 6633, 37° C., pH=7.4, inoculum 10^4): 0.8 µg/mL (≈ 2.85 µM); MIC [4]: 1.56 µg/mL (≈ 5.57 µM); MIC ([5]; Escherichia coli SOL RL 90, 37° C., pH=7.4, inoculum 10^4): 6.25 µg/mL (≈ 22.3 µM); MIC ([6]; Citrobacter freundii GN 346, 37° C., pH=7.4, inoculum 10^4): 6.25 µg/mL (≈ 22.3 µM); MIC [7]: 1.56 µg/mL (≈ 5.57 µM); MIC ([8]; Proteus mirabilis ATCC 21100, 37° C., pH=7.4, inoculum 10^4): 0.8 µg/mL (≈ 2.85 µM); MIC ([9]; Proteus morganii 1510, 37° C., pH=7.4, inoculum 10^4): 0.8 µg/mL (≈ 2.85 µM); MIC ([10]; Providencia stuartii 5158, 37° C., pH=7.4, inoculum 10^4): 6.25 µg/mL (≈ 22.3 µM); MIC ([11]; pH=7.4, inoculum 10^4): > 25 µg/mL; MIC [12]: 0.4 µg/mL (≈ 1.43 µM); MIC ([13]; Klebsiella pneumoniae R 30, 37° C., pH=7.4, inoculum 10^4): 6.25 µg/mL (≈ 22.3 µM); MIC ([14]; Enterobacter cloacae P 99, 37° C., pH=7.4, inoculum 10^4): 3.12 µg/mL (≈ 11.1 µM); MIC ([15]; Enterobacter hafniae RO 46, 37° C., pH=7.4, inoculum 10^4): 3.12 µg/mL (≈ 11.1 µM); MIC ([16]; Salmonella typhimurium A 222 IP, 37° C., pH=7.4, inoculum 10^4): 12.5 µg/mL (≈ 44.6 µM); MIC ([17]; Salmonella typhi ATCC 6539, 37° C., pH=7.4, inoculum 10^4): 25 µg/mL (≈ 89.2 µM); MIC ([18]; 37° C., pH=7.4, inoculum 10^4): > 25 µg/mL; MIC ([19]; pH=7.4, inoculum 10^4): > 25 µg/mL; MIC ([20]; 37° C., pH=7.4, inoculum 10^4): > 25 µg/mL
2 | CCn1cc(C(=O)O)c(=O)c2cc(C(=O)O)sc21 [Compound X, 4,7-dihydro-7-ethyl-2-carboxy-4-oxo-thieno[2,3-b]pyridine-5-carboxylic acid, reference compound] | > 100 | > 100 | > 100 | > 100 | > 100 | > 100 | > 100 | > 100 | > 100 | > 100 | > 100 | > 100 | > 100 | > 100 | > 100 | > 100 | > 100 | > 100 | > 100 | – | MIC ([6]; GN346, Citrobacter freundii GN 346, 37° C., pH=7.4, inoculum 10^4, read-out: MIC): > 100 µg/mL
3 | CCn1cc(C(=O)O)c(=O)c2cc(C=NOC)sc21 [Compound D, 4,7-Dihydro-7-ethyl-2-methoxyiminomethyl-4-oxo-thieno[2,3-b]pyridine-5-carboxylic acid] | – | > 100 | 0.78 (≈ 2.78 µM) | – | 0.78 (≈ 2.78 µM) | 0.78 (≈ 2.78 µM) | – | – | 50 (≈ 178 µM) | 0.2 (≈ 0.714 µM) | – | 1.56 (≈ 5.57 µM) | – | 1.56 (≈ 5.57 µM) | – | 3.12 (≈ 11.1 µM) | 12.5 (≈ 44.6 µM) | > 100 | > 100 | 3.12 (≈ 11.1 µM) | MIC ([1]; Staphylococcus aureus, 53154IP): 1.56 µg/mL (≈ 5.57 µM); MIC ([3]; ATCC6633, Bacillus subtilis ATCC 6633, 37° C., pH=7.4, inoculum 10^4, read-out: MIC): 0.78 µg/mL (≈ 2.78 µM); MIC ([5]; Escherichia coli, SOLRL90): 3.12 µg/mL (≈ 11.1 µM); MIC ([9]; Morganella morganii, 1510): 3.12 µg/mL (≈ 11.1 µM); MIC ([10]; Providencia stuartii, 5158): 3.12 µg/mL (≈ 11.1 µM); MIC ([13]; Klebsiella pneumoniae, R30): 3.12 µg/mL (≈ 11.1 µM); MIC ([15]; Hafnia alvei, RO46): 1.56 µg/mL (≈ 5.57 µM); MIC [16, 34]: 3.12 µg/mL (≈ 11.1 µM)
4 | CCn1cc(C(=O)O)c(=O)c2cc(/C=N\O)sc21 [Compound C, 4,7-Dihydro-7-ethyl-2-hydroxyiminomethyl-4-oxo-thieno[2,3-b]pyridine-5-carboxylic acid, syn-isomer] | 12.5 (≈ 46.9 µM) | > 100 | 12.5 (≈ 46.9 µM) | – | 12.5 (≈ 46.9 µM) | 12.5 (≈ 46.9 µM) | 0.4 (≈ 1.5 µM) | 12.5 (≈ 46.9 µM) | 50 (≈ 188 µM) | 12.5 (≈ 46.9 µM) | – | 3.12 (≈ 11.7 µM) | 12.5 (≈ 46.9 µM) | 0.8 (≈ 3 µM) | – | 3.12 (≈ 11.7 µM) | > 100 | > 100 | > 100 | 3.12 (≈ 11.7 µM) | MIC ([3]; Bacillus subtilis, ATCC6633): 6.25 µg/mL (≈ 23.5 µM); MIC ([5]; Escherichia coli, SOLRL90): 3.12 µg/mL (≈ 11.7 µM); MIC ([13]; Klebsiella pneumoniae, R30): 6.25 µg/mL (≈ 23.5 µM); MIC [16, 34]: 3.12 µg/mL (≈ 11.7 µM)
5 | CCn1cc(C(=O)O)c(=O)c2cc(C=Nc3ccc(OC)cc3)sc21 [Compound G, 4,7-Dihydro-7-ethyl-2-N-(4-methoxy-phenyl)-iminomethyl-4-oxo-thieno[2,3-b]pyridine-5-carboxylic acid] | > 100 | > 100 | 1.56 (≈ 4.38 µM) | 3.12 (≈ 8.75 µM) | 1.56 (≈ 4.38 µM) | – | 0.78 (≈ 2.19 µM) | 12.5 (≈ 35.1 µM) | 100 (≈ 281 µM) | 12.5 (≈ 35.1 µM) | 12.5 (≈ 35.1 µM) | 6.25 (≈ 17.5 µM) | 1.56 (≈ 4.38 µM) | 6.25 (≈ 17.5 µM) | 3.12 (≈ 8.75 µM) | 6.25 (≈ 17.5 µM) | > 100 | > 100 | > 100 | 6.25 (≈ 17.5 µM) | MIC ([3]; Bacillus subtilis, ATCC6633): 6.25 µg/mL (≈ 17.5 µM); MIC ([8]; Proteus mirabilis, ATCC21100): 6.25 µg/mL (≈ 17.5 µM)
